# Reference: PMC12718228 (Applied Biochemistry and Biotechnology, 2025)
# Assays:
# [1] = target: T1, SALDAP (6xHis-SALDAP), salicylaldehyde dehydrogenase (soil metagenome, UniProt Z9QUQ6R3A5); assay: differential scanning fluorimetry, SYPRO Orange; format: binding; conditions: 50 mM HEPES pH 7.4
# T1 construct: full-length ORF, N-terminal 6xHis tag kept (pLATE51), E. coli BL21(DE3); homodimer about 110-115 kDa
# From the text: differential scanning fluorimetry, SYPRO Orange on SALDAP (6xHis-SALDAP), salicylaldehyde dehydrogenase
# [2] = target: T1, SALDAP (6xHis-SALDAP), salicylaldehyde dehydrogenase; assay: NADH formation at […] nm, substrate inhibition fit; format: biochemical; conditions: 50 µM NAD+, 100 mM Tricine pH 8.0, 25 °C, 1.7% DMSO
# [3] = target: T1, SALDAP (6xHis-SALDAP), salicylaldehyde dehydrogenase; assay: X-ray crystallography, electron density in active site; format: binding; conditions: two conformations; structure first reported in the group's earlier paper
Compound,Tm ^oC ([1]; 2 mM ligand with 1.5 mM NAD+) [°C],further results
NC(=O)c1ccc[n+]([C@@H]2O[C@H](COP(=O)(O)OP(=O)(O)OC[C@H]3O[C@@H](n4cnc5c(N)ncnc54)[C@H](O)[C@@H]3O)[C@@H](O)[C@H]2O)c1 [NAD+],,Tm ^oC ([1]; 1.5 mM NAD+ alone): 68.7 ± 0.3 °C
O=Cc1ccc(O)cc1 [4-hydroxybenzaldehyde],70.0 ± 0.3,
O=Cc1ccccc1 [Benzaldehyde],,Ki [2]: 5.02 ± 1.84 µM
COc1cc(C=O)ccc1O [Vanillin],69.6 ± 0.4,
"O=Cc1ccc(O)c(O)c1 [3,4-dihydroxybenzaldehyde]",71.0 ± 0.0,
O=Cc1ccc2ccccc2c1 [2-naphthaldehyde],,"X-ray crystallography, electron density in active site [3]: electron density as seen in the active site of SALDAP after refinement using 2-naphthaldehyde"
